Experimental data published in patent publication US8858952B2, “Methods and materials for generating T cells” (Mayo Foundation for Medical Education and Research, priority 2009, dated 2014).
Where no end group is shown, it is not given here. [ ]: non-standard residue; d: D form. Ava = NCCCCC(=O)O

Experiments:
FR74-specific T cells = experiment: IFN-γ ELIspot of T cell cultures generated ex vivo with polypeptide-pulsed DC; format: cell-based, FVB/N mice
Procedure: FIG. 4 is a graph plotting the results an IFN-γ ELIspot analyses of T cell cultures incubated with the indicated polypeptides. Epitope nesting greatly augments the numbers of antigen-specific T cells. T cells were tested in ELIspot against native FR74 polypeptide at various concentrations. Each data point is the mean of 3 determinations.
FIG. 6. FR74-specific T cells generated with modified polypeptides recognized tumor lysates. […] Each bar is the mean (±s.e.m.) of 3 replicates.
FIG. 7. […] The T cells were generated at varying concentrations of polypeptides (x-axis). Each point is the mean (±s.e.m.) of 3 replicates.
In terms of proliferation, only the dual modified polypeptide was able to generate T cells that were able to proliferate at 10^−9 g/mL (FIG. 5).
In order to determine whether furin cleavage is required, two methods are used: furin insensitive linkers and furin inhibitors. Blockade of enhanced ex vivo expansion mediated by the DC3 peptide using these two methods is powerful evidence, outside of a furin knockout mouse, that furin is required for the actions of DC3. Although it has already been shown that DC3 must be linked to antigen, as a control T cells are expanded using free FR74 mixed with free DC3. To test the role of furin with furin-insensitive linkers, RARR (SEQ ID NO:4) is replaced with VRVV (SEQ ID NO:41) with the polypeptides FR74.1, FR74.3, and FR74.8 as shown in FIG. 17. In parallel with these cultures, cultures are included in which inhibitors are included. The stoichiometric peptidyl inhibitor decanoyl-Arg-Val-Lys-Arg-CH2CL (SEQ ID NO:42) and α1-antitrypsin Portland, which are the two most commonly used inhibitors, are employed. […] Cultures are examined over a range of concentrations of inhibitors and assayed as described with ELIspot and proliferation assays. To generate Th cells, CD4^+ T cells are purified by incubation of splenocytes with anti-CD4^+ MACS microbeads (Miltenyi, Auburn, Calif.) for 20 minutes at 4° C., followed by positive selection of CD4^+ T cells using an AutoMACS automatic magnetic cell sorter according to the manufacturer's specifications. Th cell lines are established with bone marrow derived DC at a concentration of 5×10^4 T cells/mL in 24-well tissue culture-treated plates in complete medium on day 0. To derive the dendritic cells (DCs), bone marrow is harvested from the long bones of FVB/N mice and seeded in 6-well plates (3×10^6/well) in complete media with murine GM-CSF (10 ng/mL) and IL-4 (1 ng/mL). Media and cytokines are replaced after 3 days. On day 5, CPG is added to the cultures at 1 μg/mL, and the cells are ready for T cell induction on day 6. The tissue culture-generated DC are pulsed with 10 μg/mL FR74 peptide or its modifications and 10 μg/mL B7DC-crosslinking antibody at 37° C. for 4 hours. In these experiments, constant mass is maintained. Next, the peptide-loaded DC are washed with media, and the CD4+ T cells are added, and on days 8 and 10, IL-2 (50 U/mL) is added. On day 15, cells are assayed. For the ELIspot analysis, anti-IFN-γ (Pharmingen) antibody is added to a 96-well nitrocellulose-backed plate (NC-plate, Millipore) at 50 μL/well at a concentration of 10 μg/mL in PBS and incubated overnight at 4° C. The day of analysis, the NC-plate is washed with PBS and blocked for 1-2 hours at 37° C. with PBS/2%BSA. After blocking, the plate are again washed. The Th cells are transferred to the antibody-coated plates. Syngeneic naïve CD4 T cells alone without peptide antigen are used as the negative control. Th cells are seeded at 5×10^4 cells/well with a range of native (i.e., FR74) peptide, irrelevant peptide, FRαMMC tumor lysate, irrelevant tumor lysate, media or concanavalin A. Irradiated syngeneic splenocytes are added at 1 ×10^5 cells/well as antigen-presenting cells. The plate is incubated at 37° C. for 24 hours. The plate are washed with PBS/0.05% Tween-20, and 100 μL/well biotinylated anti-IFN-γ(5 μg/mL, Pharmingen) antibody are added to each well. […]

ovarian tumor = experiment: Vaccination of ovarian tumor-bearing mice with native or nested epitope; format: in vivo; details: spleens and lymph nodes, day 50; FIGS. 32, 33
Procedure: Each bar is the mean of three mice, each done in triplicate. P values, comparing FR74-specific responses, were calculated using Tukey-Kramer Multiple Comparisons test.
Each bar is the mean of 3 mice, each done in triplicate. P values, comparing FR74-specific responses or tumor weights, were calculated using Tukey-Kramer Multiple Comparisons test.
Mice were implanted with ovarian tumor and 10 days later were treated with PBS, native epitope FR74 (2150 μg/kg in 100 μL injected at the base of the tail), or nested epitope FR74.4 (5000 μg/kg in 100 μL injected at the base of the tail) over the course of a week. On day 50, the mice were sacrificed and spleen, lymph node, and tumor tissue was harvested. T cell responses and tumor weights were then estimated. The number of FR74-specific T cells in the spleens and lymph nodes was determined (FIG. 32). T cells were estimated using an IFN-γ ELIspot assay testing responses against native FR74 (black bars) or an irrelevant peptide (white bars). In addition, the proliferation of T cells, in response to native FR74 (black bars) or an irrelevant peptide (white bars), was measured in the spleens and lymph nodes (FIG. 33). T cell proliferation was estimated using a tritiated thymidine assay.
In addition, the weight of the greater omentum (a surrogate of total tumor burden) 50 days following last immunization was measured (FIG. 34C).

For “FR74.4: dual conjugated polypeptide: FR74 nested between Ii-key and DC3 (Ac-LRMK[Ava]KDISYLYRFNWNHCGRARRFYPSYHSTPQRP)”, the “response of generated T cells to naturally processed antigen” value (FR74-specific T cells; DC pulsed with FRα-expressing tumor cells, FIG. 6) was “retain the capability to respond to naturally processed antigen”, the “lowest peptide concentration at which generated T cells respond” value (FR74-specific T cells; IFN-γ ELIspot against native FR74, FIG. 4) was 10^−9 g/mL and the “ex vivo generation of FR74-specific T cells under equal molar amounts” value (FR74-specific T cells; equal molarity, FIG. 7) was “superior ex vivo generation of FR74-specific T cells relative to the native polypeptide”. The “generation of FR74-specific T cells” value (FR74-specific T cells; within 12 days of culture, compared to controls, equal masses, FIG. 4) was “T cell reactivity greater than either modification alone” and the “immunogenicity as vaccine in tumor bearing mice (IFN-γ ELIspot and proliferation)” value (ovarian tumor) was “more immunogenic than native epitopes”.
